Source: patent US20240207427A1, “SELECTIVE DRUG RELEASE FROM INTERNALIZED CONJUGATES OF BIOLOGICALLY ACTIVE COMPOUNDS” (priority 2021, published 2024)
Read-outs that look alike come from different tables or passages of the source.

How the values were obtained:
Assay type in all cases: cell-based
[1] = tested on: breast cancer cells (MDA-MB-231); experiment: In vitro potency (CellTiter-Glo, 96 h), MDA-MB-231; settings: Homo sapiens, MDA-MB-231, 96 h, CPT free drugs, breast cancer cells MDA-MB-231, 96 h, CellTiter-Glo
Procedure: (§1) In vitro potency was assessed on multiple cancer cell lines. All cell lines were authenticated by STR profiling at IDEXX Bioresearch and cultured for no more than 2 months after resuscitation. Cells cultured in log-phase growth were seeded for 24 hours in 96-well plates containing […] RPMI 1640 supplemented with 20% FBS. Serial dilutions of antibody-drug conjugates in cell culture media were prepared at 4× working concentrations, and 50 μL of each dilution was added to the 96-well plates. Following addition of test articles, cells were incubated with test articles for 4 days at 37 0° C. After 96 hours, growth inhibition was assessed by CellTiterGlo® (Promega, Madison, WI) and luminescence was measured on a plate reader.
(§2) In Table 7, IC50 values for ADCs are given in ng/mL. Cell viability was determined by CellTiter-Glo staining after 96 h exposure to ADC. ND=Not Determined. Ag2 is an antibody targeting a ubiquitous and readily internalizable antigen. The cancer cell lines tested are renal carcinoma cells (786-0), melanoma cells (A2058), pancreatic cancer cells (BxPC3), non-small-cell lung cancer cells (Calu1), anaplastic large cell lymphoma cells (DEL, DELBVR, Karpas299), Hodgkin's lymphoma cells (L540cy), (Ls174T), breast cancer cells (MDA-MB-231), acute myeloid leukemia cells (MOLM-13), and B-lymphocyte cancer cells (SU-DHL4).
as §1, with “FBS.” for “FBS. Serial dilutions of antibody-drug conjugates in cell culture media were prepared at 4× working concentrations, and 50 μL of each dilution was added to the 96-well plates.”
(§3) Cell viability was determined by CellTiter-Glo staining after 96 h exposure to the compound. ND=Not Determined. The cancer cell lines tested are renal carcinoma cells (786-0), melanoma cells (A2058), pancreatic cancer cells (BxPC3), non-small-cell lung cancer cells (Calu1), anaplastic large cell lymphoma cells (DEL, DELBVR, Karpas299), Hodgkin's lymphoma cells (L540cy), (Ls 174T), breast cancer cells (MDA-MB-231), acute myeloid leukemia cells (MOLM-13), B-lymphocyte cancer cells (SU-DHL4), multiple myeloma cells (MM.1R), (U266), and melanoma cells (SK-MEL-5).
as §1, with “37°” for “37 0°”
(§4) In the following Tables IC50 values for ADCs and CPT free drugs are given in ng/mL and nmol/L concentrations. Cell viability was determined by CellTiter-Glo staining after 96 h exposure to ADC or CPT free drug.
(§5) Cell viability was determined by CellTiter-Glo staining after 96 h exposure to ADC. ND=Not Determined.

[2] = tested on: acute myeloid leukemia cells (MOLM-13); experiment: In vitro potency (CellTiter-Glo, 96 h), MOLM-13; settings: Homo sapiens, MOLM-13, 96 h, CPT free drugs, acute myeloid leukemia cells MOLM-13, 96 h, CellTiter-Glo
Procedure: as §1, §2
as §1, with “FBS.” for “FBS. Serial dilutions of antibody-drug conjugates in cell culture media were prepared at 4× working concentrations, and 50 μL of each dilution was added to the 96-well plates.”
as §3
as §1, with “37°” for “37 0°”
as §4, §5

[3] = tested on: anaplastic large cell lymphoma cells (Karpas299); experiment: In vitro potency (CellTiter-Glo, 96 h), Karpas299; settings: Homo sapiens, KARPAS-299, 96 h, CPT free drugs, anaplastic large cell lymphoma cells Karpas299, 96 h, CellTiter-Glo
Procedure: as §1, §2
as §1, with “FBS.” for “FBS. Serial dilutions of antibody-drug conjugates in cell culture media were prepared at 4× working concentrations, and 50 μL of each dilution was added to the 96-well plates.”
as §3
as §1, with “37°” for “37 0°”
as §4, §5

[4] = tested on: renal carcinoma cells (786-O); experiment: In vitro potency (CellTiter-Glo, 96 h), 786-O; settings: Homo sapiens, 786-0, 96 h, CPT free drugs, renal carcinoma cells 786-O, 96 h, CellTiter-Glo
Procedure: as §1, §2
as §1, with “FBS.” for “FBS. Serial dilutions of antibody-drug conjugates in cell culture media were prepared at 4× working concentrations, and 50 μL of each dilution was added to the 96-well plates.”
as §3
as §1, with “37°” for “37 0°”
as §4, §5

[5] = tested on: pancreatic cancer cells (BxPC3); experiment: In vitro potency (CellTiter-Glo, 96 h), BxPC3; settings: Homo sapiens, BXPC-3, 96 h, CPT free drugs, pancreatic cancer cells BxPC3, 96 h, CellTiter-Glo
Procedure: as §1, §2
as §1, with “FBS.” for “FBS. Serial dilutions of antibody-drug conjugates in cell culture media were prepared at 4× working concentrations, and 50 μL of each dilution was added to the 96-well plates.”
as §3
as §1, with “37°” for “37 0°”
as §4, §5

[6] = tested on: Hodgkin's lymphoma cells (L540cy); experiment: In vitro potency (CellTiter-Glo, 96 h), L540cy
Procedure: as §1, §2
as §1, with “FBS.” for “FBS. Serial dilutions of antibody-drug conjugates in cell culture media were prepared at 4× working concentrations, and 50 μL of each dilution was added to the 96-well plates.”
as §3
as §1, with “37°” for “37 0°”
as §4, §5

[7] = tested on: Ls174T cells; experiment: In vitro potency (CellTiter-Glo, 96 h), Ls174T; settings: Homo sapiens, 96 h, CPT free drugs, Ls174T cells, 96 h, CellTiter-Glo
Procedure: as §1, §2
as §1, with “FBS.” for “FBS. Serial dilutions of antibody-drug conjugates in cell culture media were prepared at 4× working concentrations, and 50 μL of each dilution was added to the 96-well plates.”
as §3
as §1, with “37°” for “37 0°”
as §4, §5

[8] = tested on: B-lymphocyte cancer cells (SU-DHL4); experiment: In vitro potency (CellTiter-Glo, 96 h), SU-DHL-4; settings: Homo sapiens, SU-DHL-4, 96 h, CPT free drugs, B-lymphocyte cancer cells SU-DHL4, 96 h, CellTiter-Glo
Procedure: as §1, §2
as §1, with “FBS.” for “FBS. Serial dilutions of antibody-drug conjugates in cell culture media were prepared at 4× working concentrations, and 50 μL of each dilution was added to the 96-well plates.”
as §3
as §1, with “37°” for “37 0°”
as §4, §5

[9] = tested on: anaplastic large cell lymphoma cells (DELBVR); experiment: In vitro potency (CellTiter-Glo, 96 h), DELBVR
Procedure: as §1, §2
as §1, with “FBS.” for “FBS. Serial dilutions of antibody-drug conjugates in cell culture media were prepared at 4× working concentrations, and 50 μL of each dilution was added to the 96-well plates.”
as §3
as §1, with “37°” for “37 0°”
as §4, §5

[10] = tested on: anaplastic large cell lymphoma cells (DEL); experiment: In vitro potency (CellTiter-Glo, 96 h), DEL
Procedure: as §1, §2
as §1, with “FBS.” for “FBS. Serial dilutions of antibody-drug conjugates in cell culture media were prepared at 4× working concentrations, and 50 μL of each dilution was added to the 96-well plates.”
as §3
as §1, with “37°” for “37 0°”
as §4, §5

[11] = read-out: MDAMB231 IC50, Table 28
[12] = read-out: MOLM-13 IC50, Table 28
[13] = read-out: Karpas299 IC50, Table 28
[14] = read-out: L540cy IC50, Table 28, CPT free drugs, Hodgkin's lymphoma cells L540cy, CellTiter-Glo
[15] = LS174T, read-out: Ls174T IC50, Table 28
[16] = read-out: SU-DHL-4 IC50, Table 28
[17] = read-out: DELBVR IC50, Table 28, CPT free drugs, anaplastic large cell lymphoma cells DELBVR, CellTiter-Glo
[18] = read-out: MDAMB231 IC50, Table 29
[19] = read-out: DEL IC50, Table 29, CPT free drugs, anaplastic large cell lymphoma cells DEL, CellTiter-Glo
[20] = read-out: MOLM-13 IC50, Table 29
[21] = read-out: Karpas299 IC50, Table 29
[22] = read-out: L540cy IC50, Table 29, CPT free drugs, Hodgkin's lymphoma cells L540cy, CellTiter-Glo
[23] = LS174T, read-out: Ls174T IC50, Table 29
[24] = read-out: SU-DHL-4 IC50, Table 29
[25] = read-out: DELBVR IC50, Table 29, CPT free drugs, anaplastic large cell lymphoma cells DELBVR, CellTiter-Glo
[26] = read-out: DEL IC50, Table 28, CPT free drugs, anaplastic large cell lymphoma cells DEL, CellTiter-Glo

Compound	IC50 [1, 11] [nM]	IC50 [2, 12] [nM]	IC50 [3, 13] [nM]	IC50 ([4]; read-out: 786-O IC50, Table 28) [nM]	IC50 ([5]; read-out: BxPC3 IC50, Table 28) [nM]	IC50 [6, 14] [nM]	IC50 [7, 15] [nM]	IC50 [8, 16] [nM]	IC50 [9, 17] [nM]	IC50 [1, 18] [nM]	IC50 [10, 19] [nM]	IC50 [2, 20] [nM]	IC50 [3, 21] [nM]	IC50 ([4]; read-out: 786-O IC50, Table 29) [nM]	IC50 ([5]; read-out: BxPC3 IC50, Table 29) [nM]	IC50 [6, 22] [nM]	IC50 [7, 23] [nM]	IC50 [8, 24] [nM]	IC50 [9, 25] [nM]	IC50 [10, 26] [nM]	further results
CC[C@@]1(O)C(=O)OCc2c1cc1n(c2=O)Cc2c-1nc1cc3c(cc1c2CNC(C)=O)OCO3 [Compound 12b]	28	3	8	12	11	4	22	1	1												
CC[C@@]1(O)C(=O)OCc2c1cc1n(c2=O)Cc2c-1nc1cc3c(cc1c2CNC[C@H](O)CN1CCCCC1)OCO3 [Compound 7aa]										228	17	69	63	131	66	51	188	19	19		
CC[C@@]1(O)C(=O)OCc2c1cc1n(c2=O)Cc2c-1nc1cc3c(cc1c2CN1CCC(N)CC1)OCO3 [Compound 8f]										207	14	32	110	267	166	84	236	32	30		
C=Cc1c(C)c(F)cc2nc3c(c(CN)c12)Cn1c-3cc2c(c1=O)COC(=O)[C@]2(O)CC [Compound 2am, (S)-11-(aminomethyl)-4-ethyl-8-fluoro-4-hydroxy-9-methyl-10-vinyl-1,12-dihydro-14H-pyrano[3′,4′:6,7]indolizino[1,2-b]quinoline-3,14(4H)-dione]	5	2	2	2	4	1	5	1	0.3											0.3	
CC[C@@]1(O)C(=O)OCc2c1cc1n(c2=O)Cc2c-1nc1cc3c(cc1c2CNC[C@@H](O)CN1CCCCC1)OCO3 [Compound 7z]										306	17	143	150	123	127	48	79	39	16		
CC[C@@]1(O)C(=O)OCc2c1cc1n(c2=O)Cc2c-1nc1cc(F)c(C)c(Cl)c1c2CNC(=O)CN [Compound 13a]	5	2	1	6	5	1	44	1	1											0.3	
CC[C@@]1(O)C(=O)OCc2c1cc1n(c2=O)Cc2c-1nc1cc(F)c(C)c(Cl)c1c2CNC(C)=O [Compound 12a]	2	1	1	1	2	0.4	7	0.4	0.2											0.2	
CC[C@@]1(O)C(=O)OCc2c1cc1n(c2=O)Cc2c-1nc1cc3c(cc1c2CNC[C@H](O)CO)OCO3 [Compound 7n]										96	5	137	57	66	47	23	39	21	6		
CC[C@@]1(O)C(=O)OCc2c1cc1n(c2=O)Cc2c-1nc1cc3c(cc1c2CNCCCN1CCN(C)CC1)OCO3 [Compound 7h]										67	5	93	57	44	43	23	40	21	6		
CC[C@@]1(O)C(=O)OCc2c1cc1n(c2=O)Cc2c-1nc1cc3c(cc1c2CN)COC3 [Compound 2ak]		129																			IC50 ([1]; Table 28, read-out: MDAMB231 IC50): 147 nM; IC50 ([10]; Table 28, CPT free drugs, anaplastic large cell lymphoma cells DEL, CellTiter-Glo, read-out: DEL IC50): 6 nM; IC50 ([3]; Table 28, read-out: Karpas299 IC50): 40 nM; IC50 ([4]; Table 28, read-out: 786-O IC50): 57 nM; IC50 ([5]; Table 28, read-out: BxPC3 IC50): 88 nM; IC50 ([6]; Table 28, CPT free drugs, Hodgkin's lymphoma cells L540cy, CellTiter-Glo, read-out: L540cy IC50): 22 nM; IC50 ([7]; Table 28, read-out: Ls174T IC50): 50 nM; IC50 ([8]; Table 28, read-out: SU-DHL-4 IC50): 11 nM; IC50 ([9]; Table 28, CPT free drugs, anaplastic large cell lymphoma cells DELBVR, CellTiter-Glo, read-out: DELBVR IC50): 6 nM
